Measurements published in PMC9861386, “N-Heterocyclic Carbene-Iridium Complexes as Photosensitizers for In Vitro Photodynamic Therapy to Trigger Non-Apoptotic Cell Death in Cancer Cells” (Molecules, 2023).

Key:
Type in all cases: cell-based, human
[1] = test system: PC-3 cells; test: Subcellular localization by confocal microscopy with MitoTracker Deep Red; conditions: 500 nM, 24 h
Excerpt: The intracellular localization of complex 4a was studied by confocal laser scanning microscopy. The treatment of PC-3 (human prostate) cells with complex 4a led to the development of intense fluorescence in the cytoplasm (Figure 9B). Specific subcellular location was investigated by staining the organelles with the specific fluorescent probe MitoTracker Deep Red (Figure 9C). […] However, an accumulation of complex 4a in lysosomes or the endoplasmic reticulum cannot be excluded.
Cell imaging was performed on an LSM 710 NLO-Meta confocal microscope with spectral detection (Zeiss, Göttingen, Germany). Images were taken through a 40×/1.2 W objective. Microscopy imaging experiments were performed with PC-3 cells that were cultured in 6-well plates and on glass slides (180,000 cells per well) for 18 h before incubation with complex 4a at different concentrations (0.25 μM, 0.5 μM and 1 μM) for various times. After 24 h, the MitoTracker deep red probe (Fisher Scientific, Illkirch, France) was incubated on live cells at a final concentration of 200 nM during 15 min at 37 °C in a 5% CO2 humidified incubator and then observed in one pass two channels 440–544 nm for complex 4a (two-photon excitation at 720 nm) and 644–700 nm for MitoTracker (excitation at 633 nm) at the same time. Merged images were generated to evaluate colocalization of the mitochondrial probe with complex 4a. […]

[2] = test system: MCF7/FasR and MCF7/FasR/Bcl-xL cells; test: Bcl-xL dependence of cell death, MTT in MCF7/FasR vs MCF7/FasR/Bcl-xL; conditions: complexes: 458 nm irradiation, 10 nM to 1 µM, TNFα 100 ng/mL, 72 h
Excerpt: To determine the mechanism of cell death, we used MCF7 cells transfected to express the human Fas receptor (FasR) or doubly transfected to express the human Fas receptor and human Bcl-xL [75]. Since MCF7 cells express the TNF receptor endogenously, this allowed the study of both Fas- and TNFα-mediated apoptosis in the same cell model to assess whether cell death was dependent on the Bcl-2 family of mitochondrial proteins such as Bcl-xL. […]
Mitochondrial outer membrane permeabilization (MOMP), which leads to rapid cell death through the release of mitochondrial proteins (including cytochrome c) that activate executioner caspases, is the critical event in intrinsic apoptosis. […] We then assessed whether the cell death induced by our complexes could be abrogated by the overexpression of Bcl-xL.
A tetrazolium-based MTT reagent (3-(4,5-dimethylthiazol-2-yl)-2,5-diphenyltetrazolium bromide) was used to determine cell viability, as previously described. […] After solubilization with 500 μL of lysis buffer (DMSO), formazan was quantified by spectrophotometry with a microplate reader at 570 nm absorbance (ClarioSTAR, BMG LabTech, Champigny-sur-Marne, France). […] All results were calculated from data obtained in at least three independent experiments. […]
Figure 13 Evaluation of apoptotic biomarkers. […] (B) MTT, ATP and GSH assays were evaluated in duplicate samples. […]

[3] = test system: MCF7/FasR and MCF7/FasR/Bcl-xL cells; test: ATP quantification (CellTiter-Glo); conditions: increasing concentration, 458 nm irradiation, 72 h
Experimental: ATP and glutathione (GSH) contents were measured with the Promega CellTiter-Glo (Cat#G7570) and GSH-Glo (cat#6911) luminescent assays, respectively, according to the manufacturer’s recommendations.
Figure 13 Evaluation of apoptotic biomarkers. MCF7/FasR and MCF7/FasR/Bcl-xL cells were irradiated at 458 nm in presence of the indicated concentration of complex 4a or treated with […] TNFα for 72 h. (A) Cytosolic extracts from MCF7/FasR and MCF7/FasR/Bcl-xL cells were separated by SDS-PAGE and probed with anti-PARP, anti-caspase-7 and anti-caspase-8. Migrations indicated are: full-length PARP p113, cleaved PARP p89, full-length caspase-7 and full-length caspase-8. (B) MTT, ATP and GSH assays were evaluated in duplicate samples. Data are expressed as percent (%) of untreated cells and are the means of 3 independent experiments (***, p < 0.0001, NS, not significant).

CC(C)[n+]1ccn2[c]1[Ir-3]13([c]4ccccc4-c4cccc[n+]41)([c]1ccccc1-c1cccc[n+]13)[c]1n(cc[n+]1C(C)C)C2.F[P-](F)(F)(F)(F)F [Complex 4a]
Pearson colocalization coefficient with MitoTracker Deep Red (mitochondria) [1]: 88% | effect of Bcl-xL overexpression on loss of cell viability [2]: not affected by Bcl-xL overexpression | ATP level [3]: loss of ATP
